This is an account of results in patent publication US10538516B2, “Oxadiazole derivative and pharmaceutical containing same” (National Center for Geriatrics and Gerontology, priority 2015, dated 2020).

The experiment has as its target T1, GAβ-dependent amyloid fibril formation (Human Aβ1-40 + GM1-containing liposome) (Homo sapiens, UniProt P05067).
T1 construct: Human Aβ1-40 (cat. #4307-v, prepared by Peptide Institute); purchased Peptide Institute 4307-v
Kind of experiment: Thioflavin T (ThT) assay of GAβ-dependent amyloid fibril formation (Aβ1-40 with GM1-containing liposome). It counts as biochemical. Put shortly:
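Human Aβ1-40 (75 μM stock) pre-incubated 10 min at room temperature with compound (75 or 15 μM solution), then GM1-containing cholesterol/sphingomyelin liposome added and incubated 37° C, 18 hours. Fibrils quantified by ThT fluorescence (ex 430/em 490 nm, pH 8.5 glycine buffer); inhibition as ratio to compound-free control.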

Where [1] appears, read: @25 μM, read-out: ThT Inhibitory activity (% inhibition).
[2] abbreviates: inhibition rate against amyloid fibril formation, final concentration of the compound 25 μM, read-out: Inhibitory activity ABC evaluation.

Read-outs that look alike come from different tables or passages of the source. A value given as a limit tells only on which side of the number the result lay.

T1 sequence (P05067 672-711 limits assumed): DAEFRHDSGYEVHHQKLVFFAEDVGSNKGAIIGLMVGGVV

Consider `O=C1CC(c2nc(-c3ccc4c(c3)OC(F)(F)O4)no2)CN1c1ccc(Cl)cc1` (centres unmarked) [Compound 32, 1-(4-chlorophenyl)-4-{3-(2,2-difluoro-benzo[d][1,3]dioxol-5-yl)-1,2,4-oxadiazol-5-yl}pyrrolidin-2-one], for which the inhibition at 5 µM (@5 μM, read-out: ThT Inhibitory activity (% inhibition)) was found to be 43%. In addition, the inhibition at 25 µM by setting is: under setting [1], 86%; under setting [2], over 80%.

Take `N[C@@H](Cc1c[nH]c2ccccc12)C(=O)N[C@@H](CO)c1nc(-c2ccc(C(F)(F)F)cc2)no1` [Compound 241, (2S)-2-amino-N-[(1S)-2-hydroxy-1-{3-[4-(trifluoromethyl)phenyl]-1,2,4-oxadiazol-5-yl}ethyl]-3-(1H-indol-3-yl)propanamide]: under setting [2], the inhibition at 25 µM is under 40%.

With `CCN(C(=O)CCc1nc(-c2ccc(OC)cc2)no1)c1cccc(Cl)c1` [Compound 7, N-(3-chlorophenyl)-N-ethyl-3-{3-(4-methoxyphenyl)-1,2,4-oxadiazol-5-yl}propanamide], the inhibition at 25 µM under setting [2] lay in the range of 40 to 80%.

Consider `O=C1CC(c2nc(-c3ccc(F)cc3)no2)CN1c1ccc(Cl)cc1` (centres unmarked) [Compound 61, 1-(4-chlorophenyl)-4-{3-(4-fluorophenyl)-1,2,4-oxadiazol-5-yl} pyrrolidin-2-one], for which the inhibition at 25 µM under setting [2] lay within 40 to 80%.

`O=C(N[C@@H](CCO)c1nc(-c2ccc(OC(F)(F)F)cc2)no1)c1ccc(Cl)cc1` [Compound 75, (S)-4-chloro-N-(3-hydroxy-1-[3-{4-(trifluoro-methoxy)phenyl}-1,2,4-oxadiazol-5-yl]propyl) benzamide]: the inhibition at 25 µM under setting [2] was 40 to 80%.

Take `O=C(N[C@@H](CO)c1nc(-c2cccs2)no1)c1ccc(F)cc1` [Compound 178, 4-fluoro-N-[(1S)-2-hydroxy-1-[3-(thiophen-2-yl)-1,2,4-oxadiazol-5-yl]ethyl]benzamide]: the inhibition at 25 µM is 61% under setting [1] and 40 to 80% under setting [2].

Take `O=C(N[C@@H](CO)c1nc(-c2ccc(C(F)(F)F)cc2)no1)c1ccc(Cl)s1` [Compound 198, 5-chloro-N-[(1S)-2-hydroxy-1-{3-[4-(trifluoromethyl)phenyl]-1,2,4-oxadiazol-5-yl}ethyl]thiophene-2-carboxamide]: the inhibition at 25 µM under setting [2] was over 80%.

Turning to `Cl.O=C(N[C@@H](CO)c1nc(-c2ccc(C(F)(F)F)cn2)no1)c1ccc(Cl)cc1` [Compound 207, 4-chloro-N-[(1S)-2-hydroxy-1-{3-[5-(trifluoromethyl)pyridin-2-yl]-1,2,4-oxadiazol-5-yl}ethyl]benzamide hydrochloride], the “Inhibitory activity ABC evaluation” value (inhibition rate against amyloid fibril formation, final concentration of the compound 25 μM) is listed as “A (80% or more was evaluated as A)”.

As to `O=C(NC(CO)c1nc(-c2ccc(C(F)(F)F)cc2)no1)c1n[nH]c2ccccc12` (centres unmarked) [Compound 186, N-(2-hydroxy-1-{3-[4-(trifluoromethyl)phenyl]-1,2,4-oxadiazol-5-yl}ethyl)-1H-indazole-3-carboxamide], the inhibition at 25 µM under setting [2] lay in the range of 40 to 80%.

As for `O=C(N[C@@H](CO)c1nc(-c2ccc(C(=O)C(F)(F)F)cc2)no1)c1ccccc1` [Compound 165, N-[(1S)-2-hydroxy-1-{3-[4-(2,2,2-trifluoroacetyl)phenyl]-1,2,4-oxadiazol-5-yl}ethyl] benzamide], the inhibition at 25 µM under setting [2] was over 80%.

As for `O=C(N[C@@H](CO)c1nc(-c2ccc(Cl)o2)no1)c1ccc(F)cc1` [Compound 228, N-[(1S)-1-[3-(5-chlorofuran-2-yl)-1,2,4-oxadiazol-5-yl]-2-hydroxyethyl]-4-fluorobenzamide], the inhibition at 25 µM under setting [2] was under 40%.

With `O=C1C[C@@H](c2nc(-c3ccc(OC(F)(F)F)cc3)no2)N(C(=O)c2ccc(Cl)cc2)C1` [Compound 57, (S)-1-(4-chlorobenzoyl)-5-{3-[4-(trifluoromethoxy)phenyl]-1,2,4-oxadiazol-5-yl}pyrrolidin-3-one], the inhibition at 25 µM under setting [2] was under 40%.

Turning to `O=C(NC1(c2nc(-c3ccc(OC(F)(F)F)cc3)no2)CCCC1)c1ccc(Cl)nc1` [Compound 31, 6-chloro-N-(1-[3-{4-(trifluoromethoxy)phenyl}-1,2,4-oxadiazol-5-yl]cyclopentyl) nicotinamide], under setting [2], the inhibition at 25 µM was under 40%.

`O=C(N[C@@H](CO)c1nc(-c2ccc3c(C(=O)C(F)(F)F)c[nH]c3c2)no1)c1ccc(F)cc1` [Compound 256, 4-fluoro-N-[(1S)-2-hydroxy-1-{3-[3-(2,2,2-trifluoroacetyl)-1H-indol-6-yl]-1,2,4-oxadiazol-5-yl}ethyl] benzamide]: the inhibition at 25 µM under setting [2] lay within 40 to 80%.

Turning to `O=C(N[C@@H](CO)c1nc(-c2ccc(O)cc2F)no1)c1ccccc1` [Compound 142, N-[(1S)-1-[3-(2-fluoro-4-hydroxyphenyl)-1,2,4-oxadiazol-5-yl]-2-hydroxyethyl]benzamide], the inhibition at 25 µM under setting [2] is 40 to 80%.

Turning to `O=C(N[C@@H](CO)c1nc(-c2ccc(OC(F)(F)F)cc2)no1)c1ccc(O)c(Cl)c1` [Compound 98, (S)-3-chloro-4-hydroxy-N-(2-hydroxy-1-[3-{4-(trifluoromethoxy)phenyl}-1,2,4-oxadiazol-5-yl]ethyl)benzamide], under setting [2], the inhibition at 25 µM is under 40%.

For the molecule `O=C(NC(CO)c1nc(-c2ccc(C(F)(F)F)cc2)no1)c1cc2ccccc2[nH]1` (centres unmarked) [Compound 182, N-(2-hydroxy-1-{3-[4-(trifluoromethyl)phenyl]-1,2,4-oxadiazol-5-yl}ethyl)-1H-indole-2-carboxamide], the inhibition at 25 µM under setting [1] turned out to be 64% and the inhibition at 25 µM under setting [2] was 40 to 80%.

`CS(=O)(=O)Nc1ccc(-c2nnc([C@H](CO)NC(=O)c3ccc(Cl)cc3)o2)cc1` [Compound 105, (S)-4-chloro-N-(2-hydroxy-1-(5-(4-(methyl-sulfonamido)phenyl)-1,3,4-oxadiazol-2-yl)ethyl)benzamide]: under setting [2], the inhibition at 25 µM is under 40%.

On to `N#Cc1cccc(-c2nnc([C@@H](CO)NC(=O)c3ccc(Cl)cc3)o2)c1` [Compound 109, (R)-4-chloro-N-(1-(5-(3-cyanophenyl)-1,3,4-oxadiazol-2-yl)-2-hydroxyethyl) benzamide], for which the inhibition at 25 µM under setting [2] is under 40%.

For `O=C(N[C@@H](CO)c1nc(-c2cc(C(F)(F)F)cc(C(F)(F)F)c2)no1)c1ccc(F)cc1` [Compound 215, N-[(1S)-1-{3-[3,5-bis(trifluoromethyl)phenyl]-1,2,4-oxadiazol-5-yl}-2-hydroxyethyl]-4-fluorobenzamide], the inhibition at 25 µM under setting [2] lay in the range of 40 to 80%.

`O=C(N[C@@H](CO)c1nc(-c2cccc(C(F)(F)F)c2)no1)c1cc(F)cc(Cl)c1` [Compound 222, 3-chloro-5-fluoro-N-[(1S)-2-hydroxy-1-{3-[3-(trifluoromethyl)phenyl]-1,2,4-oxadiazol-5-yl}ethyl]benzamide]: the inhibition at 25 µM under setting [2] was over 80%.

`O=C(N[C@@H](CO)c1nc(-c2ccc(OC(F)(F)F)cc2)no1)c1ccc(Cl)cc1` [Compound 39, (S)-4-chloro-N-(2-hydroxy-1-{3-[4-(trifluoromethoxy)phenyl]-1,2,4-oxadiazol-5-yl}ethyl)benzamide]: the inhibition at 25 µM is, setting by setting: under setting [1], 98%; (final concentration of the compound 25 μM, ratio of ThT fluorescence intensity with/without compound, 37° C. for 18 hours, read-out: inhibition rate against amyloid fibril formation (inhibitory activity on a scale of A to C)) over 80%; under setting [2], over 80%.

On to `O=C(N[C@@H](CO)c1nc(-c2c[nH]c3ccc(C(F)(F)F)cc23)no1)c1ccc(F)cc1` [Compound 262, 4-fluoro-N-[(1S)-2-hydroxy-1-{3-[5-(trifluoromethyl)-1H-indol-3-yl]-1,2,4-oxadiazol-5-yl}ethyl] benzamide], for which the inhibition at 25 µM under setting [2] was 40 to 80%.

For the molecule `CS(=O)(=O)Nc1ccc(-c2nnc([C@@H](CO)NC(=O)c3ccc(Cl)cc3)o2)cc1` [Compound 108, (R)-4-chloro-N-(2-hydroxy-1-(5-(4-(methyl-sulfonamido)phenyl)-1,3,4-oxzdiazol-2-yl)ethyl)benzamide], the inhibition at 25 µM under setting [2] is under 40%.

Regarding `O=C(Cc1ccc(F)cc1)NC(CO)c1nc(-c2ccc(C(F)(F)F)cc2)no1` (centres unmarked) [Compound 187, 2-(4-fluorophenyl)-N-(2-hydroxy-1-{3-[4-(trifluoromethyl)phenyl]-1,2,4-oxadiazol-5-yl}ethyl)acetamide], the inhibition at 25 µM under setting [2] was 40 to 80%.

As to `CN(C(=O)CCc1nc(-c2ccc(OC(F)(F)F)cc2)no1)c1cccc(Cl)c1` [Compound 11, N-(3-chlorophenyl)-N-methyl-3-[3-{4-(trifluoromethoxy)phenyl}-1,2,4-oxadiazol-5-yl]propanamide], the inhibition at 25 µM under setting [2] is 40 to 80%.

As for `O=C(N[C@@H](CO)c1nc(-c2ccccc2C(F)(F)F)no1)c1ccccc1` [Compound 189, N-[(1S)-2-hydroxy-1-{3-[2-(trifluoromethyl)phenyl]-1,2,4-oxadiazol-5-yl}ethyl]benzamide], the inhibition at 25 µM under setting [2] is 40 to 80%.

For the molecule `N#Cc1cccc(-c2nnc([C@H](CO)NC(=O)c3ccc(Cl)cc3)o2)c1` [Compound 106, (S)-4-chloro-N-(1-(5-(3-cyanophenyl)-1,3,4-oxadiazol-2-yl)-2-hydroxyethyl) benzamide], the inhibition at 25 µM under setting [2] was 40 to 80%.

For the molecule `COc1ccc(-c2noc(C3CC(=O)N(c4ccc(Cl)cc4)C3)n2)cn1` (centres unmarked) [Compound 54, 1-(4-chlorophenyl)-4-{3-(6-methoxy-pyridin-3-yl)-1,2,4-oxadiazol-5-yl}pyrrolidin-2-one], under setting [2], the inhibition at 25 µM is 40 to 80%.

Take `O=C(N[C@@H](CO)c1nc(-c2ccc(C(F)(F)F)cc2)no1)c1ccc(OC(F)(F)F)cc1` [Compound 199, N-[(1S)-2-hydroxy-1-{3-[4-(trifluoromethyl)phenyl]-1,2,4-oxadiazol-5-yl}ethyl]-4-(trifluoromethoxy) benzamide]: the inhibition at 25 µM under setting [2] was over 80%.

Take `O=C(N[C@@H](CO)c1nc(-c2csc3ccccc23)no1)c1ccc(F)cc1` [Compound 230, N-[(1S)-1-[3-(1-benzothiophen-3-yl)-1,2,4-oxadiazol-5-yl]-2-hydroxyethyl]-4-fluorobenzamide]: the inhibition at 25 µM is 73% under setting [1] and 40 to 80% under setting [2].
